The values below come from patent publication US8952169B2 (Genentech, Inc., priority 2012, dated 2015).

The target in experiment [1] is T1, hNav1.7 (Homo sapiens (Human), UniProt Q15858). The experiment can be described thus: Tritiated aryl sulfonamide binding to membranes from cells expressing hNav1.7 and the β1 subunit (competitive binding). To be noted: membranes with hNav1.7 and β1 subunit; [3H]compound displacement, 18 h, room temperature; read-out: NaV1.7 395 Memb Binding (IC50). Put shortly: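 Competitive displacement of 100 μM [3H]-labelled tritiated aryl sulfonamide from hNav1.7/β1 membranes, 18 h at room temperature in 100 mM NaCl, 20 mM Tris HCl pH 7.4. Non-specific binding defined with 1 μM unlabelled compound. Filter-bound radioactivity measured by liquid scintillation counting.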
T1 sequence (Q15858 whole entry, looked up): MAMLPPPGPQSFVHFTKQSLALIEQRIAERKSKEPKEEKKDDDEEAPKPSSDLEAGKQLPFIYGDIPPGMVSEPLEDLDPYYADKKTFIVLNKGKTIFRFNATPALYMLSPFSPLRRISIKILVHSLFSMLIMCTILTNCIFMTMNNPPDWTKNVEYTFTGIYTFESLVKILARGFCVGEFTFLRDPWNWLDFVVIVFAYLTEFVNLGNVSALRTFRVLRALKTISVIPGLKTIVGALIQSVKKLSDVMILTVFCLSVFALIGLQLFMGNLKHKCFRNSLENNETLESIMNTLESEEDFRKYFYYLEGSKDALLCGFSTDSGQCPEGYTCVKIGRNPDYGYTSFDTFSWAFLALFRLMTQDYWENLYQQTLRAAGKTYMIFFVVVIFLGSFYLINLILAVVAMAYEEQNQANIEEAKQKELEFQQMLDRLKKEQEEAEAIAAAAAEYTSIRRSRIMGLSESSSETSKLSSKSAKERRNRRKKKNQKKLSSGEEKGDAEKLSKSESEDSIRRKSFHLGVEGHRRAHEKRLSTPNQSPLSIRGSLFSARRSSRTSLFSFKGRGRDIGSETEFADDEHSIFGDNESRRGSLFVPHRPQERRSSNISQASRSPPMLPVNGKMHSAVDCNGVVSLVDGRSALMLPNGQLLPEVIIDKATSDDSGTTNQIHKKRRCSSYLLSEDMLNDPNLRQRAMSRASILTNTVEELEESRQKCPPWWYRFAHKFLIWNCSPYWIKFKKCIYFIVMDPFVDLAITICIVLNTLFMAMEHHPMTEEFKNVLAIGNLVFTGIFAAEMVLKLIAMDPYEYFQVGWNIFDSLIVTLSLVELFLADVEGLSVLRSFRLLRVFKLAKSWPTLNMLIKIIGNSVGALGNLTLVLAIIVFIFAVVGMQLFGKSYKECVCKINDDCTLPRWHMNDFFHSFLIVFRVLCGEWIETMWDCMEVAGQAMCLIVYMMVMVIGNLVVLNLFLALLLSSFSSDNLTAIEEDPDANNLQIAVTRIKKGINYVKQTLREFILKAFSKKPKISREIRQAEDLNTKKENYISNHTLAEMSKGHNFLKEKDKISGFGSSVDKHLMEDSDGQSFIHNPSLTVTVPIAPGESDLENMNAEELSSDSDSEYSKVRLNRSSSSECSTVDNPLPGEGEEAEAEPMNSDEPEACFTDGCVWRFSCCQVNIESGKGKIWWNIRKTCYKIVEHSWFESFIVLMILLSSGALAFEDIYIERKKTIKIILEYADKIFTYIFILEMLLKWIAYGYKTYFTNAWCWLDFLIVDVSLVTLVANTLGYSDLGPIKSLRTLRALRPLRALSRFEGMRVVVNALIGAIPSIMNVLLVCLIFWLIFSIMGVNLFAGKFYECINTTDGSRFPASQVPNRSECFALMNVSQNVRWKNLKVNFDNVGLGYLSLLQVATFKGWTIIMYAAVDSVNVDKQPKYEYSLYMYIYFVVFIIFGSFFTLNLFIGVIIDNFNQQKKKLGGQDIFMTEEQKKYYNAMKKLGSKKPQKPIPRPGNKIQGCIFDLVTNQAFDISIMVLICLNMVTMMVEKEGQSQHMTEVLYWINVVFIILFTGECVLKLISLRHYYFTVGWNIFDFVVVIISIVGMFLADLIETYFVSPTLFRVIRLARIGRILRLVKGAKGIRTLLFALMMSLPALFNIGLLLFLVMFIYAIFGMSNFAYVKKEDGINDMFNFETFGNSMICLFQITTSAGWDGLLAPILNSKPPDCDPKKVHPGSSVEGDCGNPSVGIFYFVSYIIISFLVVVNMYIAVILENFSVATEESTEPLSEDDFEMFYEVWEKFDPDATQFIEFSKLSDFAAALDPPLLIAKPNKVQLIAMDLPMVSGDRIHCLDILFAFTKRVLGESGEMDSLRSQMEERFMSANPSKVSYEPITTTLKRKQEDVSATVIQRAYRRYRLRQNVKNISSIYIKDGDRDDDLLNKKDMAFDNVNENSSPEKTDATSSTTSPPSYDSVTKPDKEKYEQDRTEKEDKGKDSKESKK
T1 sequence (Q07699 whole entry partner, looked up): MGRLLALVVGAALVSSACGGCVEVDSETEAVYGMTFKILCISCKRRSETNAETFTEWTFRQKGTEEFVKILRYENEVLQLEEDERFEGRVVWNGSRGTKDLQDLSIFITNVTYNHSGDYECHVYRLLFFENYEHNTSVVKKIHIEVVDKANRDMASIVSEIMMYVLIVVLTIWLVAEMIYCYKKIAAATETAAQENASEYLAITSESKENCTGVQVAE

Experiment [2] concerns the target T1, hNav1.7. The experiment in a line: Patch voltage clamp electrophysiology (PatchXpress), HEK-293 cells, inactivated state block. To be noted: HEK-293 cells, β1 coexpressed; inactivated state, holding −60 mV; read-out: EP_PX 293 hNav1.7 (IC50). Format: cell-based.

Each structure is given as a SMILES string.

Turning to `CC1(C)CCCC(COc2cc(F)c(C(=O)NS(=O)(=O)N3CCC3)cc2C2CC2)C1` (stereo not shown), the concentration for half-maximal inhibition (IC50) at hNav1.7 [1] was 4 nM; on hNav1.7 [2] it was 8 nM.

For the compound `O=C(NS(=O)(=O)N1CCC1)c1cc(C2CC2)c(OCC23CC4CC(CC(CF)(C4)C2)C3)cc1F`, the IC50 was found to be 4 nM on hNav1.7 [1] and 8 nM on hNav1.7 [2].

In the case of `CS(=O)(=O)NC(=O)c1cc(Cl)c(OCC23CC4CC(CC(O)(C4)C2)C3)cc1F`, the IC50 at hNav1.7 [1] amounted to 10000 nM; on hNav1.7 [2], 2250 nM.

`COCCS(=O)(=O)NC(=O)c1cc(C2CC2)c(OCC23CCCCC2C3)cc1F` (stereo not shown): the figures for the half-maximal inhibitory concentration (IC50) at hNav1.7 [1] and at hNav1.7 [2] were 19 nM and 10 nM, respectively.

For `O=C(NS(=O)(=O)N1CCC(O)CC1)c1cc(C2CC2)c(OCC23CC4CC(CC(C4)C2)C3)cc1F`, the IC50 on hNav1.7 [1] came to 26 nM; on hNav1.7 [2], 23 nM.

`O=C(NS(=O)(=O)N1CCC1)c1cc(C2CC2)c(OCC2CCC3(CC2)CC3)cc1F`: the figures for the half-maximal inhibitory concentration (IC50) on hNav1.7 [1] and at hNav1.7 [2] were 4 nM and 6 nM, respectively.

In the case of `CS(=O)(=O)NC(=O)c1ccc(OC[C@H]2CC[C@H](C(F)(F)F)CC2)cc1F`, the values for the IC50 on hNav1.7 [1] and on hNav1.7 [2] were 1500 nM and 1000 nM, respectively.

As for `[2H]C1([2H])C([2H])([2H])C([2H])([2H])C([2H])(COc2cc(F)c(C(=O)NS(=O)(=O)N3CCC3)cc2Cl)C([2H])([2H])C1([2H])[2H]`, the IC50 was determined as 160 nM on hNav1.7 [1] and 310 nM on hNav1.7 [2].

Take `[2H]C1([2H])C([2H])([2H])C([2H])([2H])C([2H])(COc2cc(F)c(C(=O)NS(=O)(=O)N3CCC3)cc2C2CC2)C([2H])([2H])C1([2H])[2H]`: the figures for the IC50 at hNav1.7 [1] and at hNav1.7 [2] were 11 nM and 100 nM, respectively.

In the case of `O=C(NS(=O)(=O)C1CC1)c1cc(C2CC2)c(O[C@@H]2C[C@@H]3CC[C@H]2C3)cc1F`, the values for the IC50 at hNav1.7 [1] and on hNav1.7 [2] were 14 nM and 41 nM, respectively.

Consider `O=C(NS(=O)(=O)N1CCC1)c1cc(C2CC2)c(O[C@@H]2C[C@@H]3CC[C@H]2C3)cc1F`, for which the half-maximal inhibitory concentration (IC50) at hNav1.7 [1] came out at 31 nM; on hNav1.7 [2], 80 nM.

In the case of `CS(=O)(=O)NC(=O)c1cc(C2CC2)c(O[C@@H]2C[C@@H]3CC[C@H]2C3)cc1F`, the results for the IC50 on hNav1.7 [1] and on hNav1.7 [2] were 45 nM and 230 nM, respectively.

For `O=C(NS(=O)(=O)N1CCC1)c1cc(C2CC2)c(OCCC2CCC(F)(F)CC2)cc1F`, the half-maximal inhibitory concentration (IC50) on hNav1.7 [1] is 230 nM; on hNav1.7 [2], 80 nM.

Regarding `O=C(NS(=O)(=O)N1CCC1)c1cc(C2CC2)c(O[C@H]2C[C@@H]3CC[C@H]2C3)cc1F`, the concentration for half-maximal inhibition (IC50) was 70 nM at hNav1.7 [1] and 32 nM at hNav1.7 [2].

As for `CS(=O)(=O)NC(=O)c1cc(C2CC2)c(O[C@H]2C[C@@H]3CC[C@H]2C3)cc1F`, the IC50 at hNav1.7 [1] stood at 74 nM; at hNav1.7 [2], 24 nM.

As for `O=C(NS(=O)(=O)N1CCC1)c1cc(F)c(OCC23CC4CC(CC(C4)C2)C3)c(Cl)c1F`, the half-inhibitory concentration (IC50) at hNav1.7 [1] was determined as 1300 nM; at hNav1.7 [2], 5200 nM.

In the case of `O=C(NS(=O)(=O)N1CCC1)c1cc(Cl)c(OCC2CCC3(CCC3)CC2)cc1F`, the IC50 at hNav1.7 [1] worked out at 25 nM; at hNav1.7 [2] it was 77 nM.

Turning to `CO[C@H]1CCN(S(=O)(=O)NC(=O)c2cc(C3CC3)c(OCC34CC5CC(CC(C5)C3)C4)cc2F)C1`, the IC50 on hNav1.7 [1] amounted to 29 nM; on hNav1.7 [2] it was 300 nM.

In the case of `O=C(NS(=O)(=O)N1CCC1)c1cc(Cl)c(OCC23CC4CC(CC(C4)C2)C3)c(F)c1F`, the IC50 was found to be 370 nM at hNav1.7 [1] and 2300 nM on hNav1.7 [2].

For the compound `CS(=O)(=O)NC(=O)c1cc(Cl)c(OCC23CC4CC(CC(C4)C2)C3)c(F)c1F`, the IC50 on hNav1.7 [1] stood at 190 nM; on hNav1.7 [2], 1500 nM.

As to `O=C(NS(=O)(=O)N1CCC1)c1cc(C2CC2)c(O[C@H]2C3CC4CC2C[C@](F)(C4)C3)cc1F`, the IC50 at hNav1.7 [1] stood at 20 nM; at hNav1.7 [2], 100 nM.

With `O=C(NS(=O)(=O)C1CC1)c1cc(C2CC2)c(O[C@H]2C3CC4CC2C[C@](F)(C4)C3)cc1F`, the IC50 at hNav1.7 [1] was determined as 11 nM; at hNav1.7 [2], 43 nM.

For the compound `O=C(NS(=O)(=O)N1CCC1)c1cc(C2CC2)c(OC2C3CC4CC(C3)CC2C4)cc1F` (stereo not shown), the 50% inhibitory concentration (IC50) worked out at 10 nM at hNav1.7 [1] and 56 nM on hNav1.7 [2].

Take `O=C(NS(=O)(=O)N1CCC1)c1cc(C2CC2)c(OC2CCC(F)(F)CC2)cc1F`: the concentration for half-maximal inhibition (IC50) worked out at 110 nM on hNav1.7 [1] and 270 nM at hNav1.7 [2].

With `O=C(NS(=O)(=O)C1CC1)c1cc(C2CC2)c(OC2CCC(F)(F)CC2)cc1F`, the IC50 on hNav1.7 [1] is 43 nM; on hNav1.7 [2], 140 nM.

For the compound `O=C(NS(=O)(=O)N1CCC1)c1cc(Cl)c(OC2CCC(F)(F)CC2)cc1F`, the IC50 on hNav1.7 [1] was 980 nM; at hNav1.7 [2], 4400 nM.

`CC1(F)CCC(COc2cc(F)c(C(=O)NS(=O)(=O)N3CCC3)cc2Cl)CC1` (stereo not shown): the figures for the IC50 on hNav1.7 [1] and on hNav1.7 [2] were 270 nM and 280 nM, respectively.

Turning to `CS(=O)(=O)NC(=O)c1cc(C2CC2)c(OC2CCC3(CC2)CC3)cc1F`, the 50% inhibitory concentration (IC50) at hNav1.7 [1] came to 21 nM; on hNav1.7 [2] it was 18 nM.

As to `O=C(NS(=O)(=O)N1CCC1)c1cc(C2CC2)c(OC2CCC3(CC2)CC3)cc1F`, the values for the concentration for half-maximal inhibition (IC50) at hNav1.7 [1] and on hNav1.7 [2] were 23 nM and 29 nM, respectively.

`CS(=O)(=O)NC(=O)c1cc(C2CC2)c(OCC2CCC3C(C2)C3(F)F)cc1F` (stereo not shown): the IC50 on hNav1.7 [1] is 21 nM; on hNav1.7 [2], 19 nM.

Regarding `O=C(NS(=O)(=O)C1CC1)c1cc(C2CC2)c(OCC2CCC3C(C2)C3(F)F)cc1F` (stereo not shown), the IC50 on hNav1.7 [1] was found to be 8 nM; at hNav1.7 [2], 9 nM.

Regarding `O=C(NS(=O)(=O)N1CCC1)c1cc(C2CC2)c(OCC2CCC3C(C2)C3(F)F)cc1F` (stereo not shown), the IC50 was found to be 15 nM on hNav1.7 [1] and 34 nM on hNav1.7 [2].

Take `COC12CC3CC(C1)C(Oc1cc(F)c(C(=O)NS(C)(=O)=O)cc1Cl)C(C3)C2` (stereo not shown): the 50% inhibitory concentration (IC50) at hNav1.7 [1] is 730 nM; on hNav1.7 [2], 610 nM.

Take `O=C(NS(=O)(=O)C1CC1)c1cc(C2CC2)c(O[C@H]2C3CC4CC2C[C@@](Cl)(C4)C3)cc1F`: the IC50 amounted to 4 nM on hNav1.7 [1] and 24 nM at hNav1.7 [2].

For the compound `O=C(NS(=O)(=O)N1CCC1)c1cc(C2CC2)c(OC2CCC(Cl)(Cl)CC2)cc1F`, the concentration for half-maximal inhibition (IC50) on hNav1.7 [1] worked out at 44 nM; on hNav1.7 [2], 120 nM.

For `CS(=O)(=O)NC(=O)c1cc(C2CC2)c(OC2CCC3(CCCCC3)CC2)cc1F`, the IC50 at hNav1.7 [1] was 7 nM; at hNav1.7 [2] it was 120 nM.

As to `O=C(NS(=O)(=O)C1CC1)c1cc(C2CC2)c(OC2CCC3(CCCCC3)CC2)cc1F`, the IC50 amounted to 4 nM on hNav1.7 [1] and 61 nM at hNav1.7 [2].

As for `CC1(C)CCCC(Oc2cc(F)c(C(=O)NS(=O)(=O)C3CC3)cc2C2CC2)C1` (stereo not shown), the half-inhibitory concentration (IC50) came out at 6 nM on hNav1.7 [1] and 53 nM at hNav1.7 [2].

Turning to `O=C(NS(=O)(=O)N1CCC1)c1cc(C2CC2)c(OC2CCC3(CCCCC3)CC2)cc1F`, the 50% inhibitory concentration (IC50) at hNav1.7 [1] came to 6.3 nM; at hNav1.7 [2] it was 220 nM.

As to `CC1(F)CCC(COc2cc(F)c(C(=O)NS(=O)(=O)N3CCC3)cc2C2CC2)CC1` (stereo not shown), the half-maximal inhibitory concentration (IC50) at hNav1.7 [1] came to 23 nM; at hNav1.7 [2], 67 nM.

As for `O=C(NS(=O)(=O)N1CCC1)c1cc(C2CC2)c(OCC2CCC3(CCC3)CC2)cc1F`, the IC50 at hNav1.7 [1] worked out at 4 nM; on hNav1.7 [2] it was 300 nM.

`O=C(NS(=O)(=O)N1CCC1)c1cc(C2CC2)c(O[C@H]2C3CC4CC2C[C@@](F)(C4)C3)cc1F`: the IC50 on hNav1.7 [1] was found to be 21 nM; on hNav1.7 [2], 24 nM.

With `O=C(NS(=O)(=O)N1CCC1)c1cc(C2CC2)c(O[C@H]2C3CC4CC2C[C@@](Cl)(C4)C3)cc1F`, the figures for the IC50 at hNav1.7 [1] and on hNav1.7 [2] were 10 nM and 94 nM, respectively.

`CS(=O)(=O)NC(=O)c1cc(Cl)c(OCC2CC=CCC2)cc1F` (stereo not shown): the results for the IC50 on hNav1.7 [1] and on hNav1.7 [2] were 130 nM and 1300 nM, respectively.

The IC50 is the concentration that inhibits the measured activity by half.
